According to US20200385789A1, “METHODS OF ASSESSING TELOMERES” (Children's Medical Research Institute, priority 2017, published 2020):

System: IMR90 primary human foetal lung fibroblasts
Assay: Telomere length by telomere fibre-FISH (TFF) after exposure of cells to inhibitors
Type: cell-based
Settings: 0.1 μM aphidicolin and/or 0.2 μM INK128, harvested 7 days after exposure, versus DMSO alone (untreated)
Protocol: IMR90 primary human foetal lung fibroblasts were plated and 1 day later were exposed to aphidicolin, mTORi, aphidicolin+mTORi, or DMSO alone (untreated). Cells were harvested a further 7 days later and telomere length was assessed by TFF. (A) Representative imaging data of DNA fibres: Left panel—expanded view of telomere fibre fish imaging data. Center and right panels—close up of the boxes 1-5 shown on the left panel. Boxes are drawn around the telomere signals and the length in μm and kb is indicated. (B). Telomere length presented in a Tukey box plot. “+” is the mean, **=P<0.01. TFF was used to measure telomere length in cells exposed to one or both of two inhibitors: aphidicolin and an mTOR inhibitor. Cells (IMR90 primary human foetal lung fibroblasts) were plated and one day later were exposed to 0.1 μM aphidicolin, 0.2 μM of INK128 (an mTOR inhibitor), aphidicolin+INK128, or DMSO alone (untreated). Cells were harvested a further 7 days later and telomere length was assessed by TFF, essentially as described above.

SMILES	Telomere length compared with untreated cells
CC(C)n1nc(-c2ccc3oc(N)nc3c2)c2c(N)ncnc21 [INK128]	telomere length in untreated cells was significantly greater
C[C@@]1(CO)[C@H](O)CC[C@@]2(C)[C@H]1CC[C@H]1C[C@@H]3C[C@@]12CC[C@]3(O)CO [aphidicolin]	telomere length in untreated cells was significantly greater
